US8192962B2, “Processes for detecting toxic substances” (Daikin Industries, Ltd., priority 2001, dated 2012)

System: Mitochondria-located protein genes
Test: DNA chip mRNA expression in yeast, mitochondria-located protein genes (Table 2)
Assay type: cell-based, Saccharomyces cerevisiae S288C
Conditions: cells incubated two hours with the chemical substance
Description: Yeast (Saccharomyces cerevisiae S288C (α SUC2mal mel gap2 CUP1)) were incubated at 25° C. on YPD medium (yeast extract 1%, polypepton 2%, glucose 2%). One of toxic chemical substances was added to the cells at logarithmic growth phase, and the cells were further incubated for two hours. Cells were cultured without any chemical substance in the same condition, and were used as control. Concentrations of the chemical substances were defined to inhibit the growth of the yeast but not lead to death.
After completion of the incubation, the culture was centrifuged to collect the cells. To the cells, sodium acetate buffer (50 mM sodium acetate, 10 mM EDTA, 1% SDS) was added, and the mixture was shaken at 65° C. for five minutes, followed by returning to room temperature, and obtaining the supernatant, of which the procedures were repeated two times. To the supernatant, ½ amount of a solution of phenol/chloroform was added, and the mixture was centrifuged to give a supernatant, which was added with an equal amount of chloroform, and the mixture was centrifuged to give a supernatant. To the supernatant, an equal amount of isopropanol containing 0.3 M sodium acetate was added, and the mixture was allowed to stand at room temperature for 30 minutes, after which the mixture was centrifuged to give a sediment of the whole RNAs. Seventy % ethanol was added to the sediment, and the mixture was again centrifuged to give a sediment, which was then dried and dissolved in water. mRNA was isolated from the whole RNAs as followings. In view of the fact that a poly A chain is attached to the 3′ terminus of mRNA, a polynucleotide having a poly T structure which was immobilized on the surface of latex beads was used to trap the mRNA, and then the mRNA was washed and eluted with spine column (Oligotex-dT30<Super>mRNA Purification Kit, Takara). Reverse transcription of the mRNA was conducted with a reverse transcriptase (Super Script II Reverse Transcriptase; catalogue No. 18064-014, GibcoBRL) using fluorescence-labeled nucleotides to give cDNAs that were introduced with Cy3-dUTP or Cy5-dUTP during the reverse transcription.
The labeled cDNAs were dissolved in TE buffer (10mM Tris-HCl/1 mM EDTA, pH8.0), and the solution was dropped on the DNA chip containing the whole genes of yeast (DNA Chip Research Inc. Japan) so that the cDNAs were hybridized on the DNA chip at 65° C. for over 12 hours. The fluoresces intensity of the DNA chip was read with a scanner, and the ratio relative to the fluorescence intensity resulting from the absence of chemical substance was estimated as the following, which is shown in Tables 1 to 9: […]

## CCCCCCCCCCCCc1ccc(S(=O)(=O)[O-])cc1.[Na+] [(17), sodium dodecylbenzosulfonate]
Yeast gene YAL039C
  The level of expressed mRNA in the presence of chemical substance/The level of expressed mRNA in the absence of chemical substance: 1.4
Yeast gene YBL022C
  The level of expressed mRNA in the presence of chemical substance/The level of expressed mRNA in the absence of chemical substance: 0.9
Yeast gene YBL030C
  The level of expressed mRNA in the presence of chemical substance/The level of expressed mRNA in the absence of chemical substance: 1.0
Yeast gene YBL038W
  The level of expressed mRNA in the presence of chemical substance/The level of expressed mRNA in the absence of chemical substance: 1.2
Yeast gene YBL099W
  The level of expressed mRNA in the presence of chemical substance/The level of expressed mRNA in the absence of chemical substance: 0.7
Yeast gene YBR003W
  The level of expressed mRNA in the presence of chemical substance/The level of expressed mRNA in the absence of chemical substance: 1.1
Yeast gene YBR044C
  The level of expressed mRNA in the presence of chemical substance/The level of expressed mRNA in the absence of chemical substance: 0.9
Yeast gene YBR091C
  The level of expressed mRNA in the presence of chemical substance/The level of expressed mRNA in the absence of chemical substance: 1.0
Yeast gene YBR122C
  The level of expressed mRNA in the presence of chemical substance/The level of expressed mRNA in the absence of chemical substance: 0.9
Yeast gene YBR185C
  The level of expressed mRNA in the presence of chemical substance/The level of expressed mRNA in the absence of chemical substance: 0.8
Yeast gene YBR221C
  The level of expressed mRNA in the presence of chemical substance/The level of expressed mRNA in the absence of chemical substance: 0.9
Yeast gene YBR251W
  The level of expressed mRNA in the presence of chemical substance/The level of expressed mRNA in the absence of chemical substance: 0.9
Yeast gene YBR282W
  The level of expressed mRNA in the presence of chemical substance/The level of expressed mRNA in the absence of chemical substance: 0.9
Yeast gene YCL057W
  The level of expressed mRNA in the presence of chemical substance/The level of expressed mRNA in the absence of chemical substance: 0.9
Yeast gene YCR046C
  The level of expressed mRNA in the presence of chemical substance/The level of expressed mRNA in the absence of chemical substance: 1.3
Yeast gene YCR083W
  The level of expressed mRNA in the presence of chemical substance/The level of expressed mRNA in the absence of chemical substance: 1.3
Yeast gene YDL067C
  The level of expressed mRNA in the presence of chemical substance/The level of expressed mRNA in the absence of chemical substance: 1.2
Yeast gene YDL181W
  The level of expressed mRNA in the presence of chemical substance/The level of expressed mRNA in the absence of chemical substance: 1.5
Yeast gene YDL198C
  The level of expressed mRNA in the presence of chemical substance/The level of expressed mRNA in the absence of chemical substance: 1.5
Yeast gene YDR079W
  The level of expressed mRNA in the presence of chemical substance/The level of expressed mRNA in the absence of chemical substance: 1.1
Yeast gene YDR178W
  The level of expressed mRNA in the presence of chemical substance/The level of expressed mRNA in the absence of chemical substance: 1.2
Yeast gene YDR231C
  The level of expressed mRNA in the presence of chemical substance/The level of expressed mRNA in the absence of chemical substance: 1.2
Yeast gene YDR258C
  The level of expressed mRNA in the presence of chemical substance/The level of expressed mRNA in the absence of chemical substance: 1.3
Yeast gene YDR298C
  The level of expressed mRNA in the presence of chemical substance/The level of expressed mRNA in the absence of chemical substance: 1.1
Yeast gene YDR347W
  The level of expressed mRNA in the presence of chemical substance/The level of expressed mRNA in the absence of chemical substance: 0.9
Yeast gene YDR377W
  The level of expressed mRNA in the presence of chemical substance/The level of expressed mRNA in the absence of chemical substance: 1.2
Yeast gene YDR529C
  The level of expressed mRNA in the presence of chemical substance/The level of expressed mRNA in the absence of chemical substance: 1.0
Yeast gene YEL024W
  The level of expressed mRNA in the presence of chemical substance/The level of expressed mRNA in the absence of chemical substance: 1.1
Yeast gene YEL039C
  The level of expressed mRNA in the presence of chemical substance/The level of expressed mRNA in the absence of chemical substance: 0.7
Yeast gene YER178W
  The level of expressed mRNA in the presence of chemical substance/The level of expressed mRNA in the absence of chemical substance: 1.1
Yeast gene YFL016C
  The level of expressed mRNA in the presence of chemical substance/The level of expressed mRNA in the absence of chemical substance: 1.2
Yeast gene YGL018C
  The level of expressed mRNA in the presence of chemical substance/The level of expressed mRNA in the absence of chemical substance: 0.8
Yeast gene YGL187C
  The level of expressed mRNA in the presence of chemical substance/The level of expressed mRNA in the absence of chemical substance: 0.9
Yeast gene YGL191W
  The level of expressed mRNA in the presence of chemical substance/The level of expressed mRNA in the absence of chemical substance: 1.2
Yeast gene YGR008C
  The level of expressed mRNA in the presence of chemical substance/The level of expressed mRNA in the absence of chemical substance: 1.7
Yeast gene YGR028W
  The level of expressed mRNA in the presence of chemical substance/The level of expressed mRNA in the absence of chemical substance: 1.5
Yeast gene YGR062C
  The level of expressed mRNA in the presence of chemical substance/The level of expressed mRNA in the absence of chemical substance: 0.9
Yeast gene YGR076C
  The level of expressed mRNA in the presence of chemical substance/The level of expressed mRNA in the absence of chemical substance: 0.9
Yeast gene YGR082W
  The level of expressed mRNA in the presence of chemical substance/The level of expressed mRNA in the absence of chemical substance: 0.9
Yeast gene YGR174C
  The level of expressed mRNA in the presence of chemical substance/The level of expressed mRNA in the absence of chemical substance: 1.3
Yeast gene YGR244C
  The level of expressed mRNA in the presence of chemical substance/The level of expressed mRNA in the absence of chemical substance: 1.9
Yeast gene YHR008C
  The level of expressed mRNA in the presence of chemical substance/The level of expressed mRNA in the absence of chemical substance: 0.9
Yeast gene YIL155C
  The level of expressed mRNA in the presence of chemical substance/The level of expressed mRNA in the absence of chemical substance: 1.1
Yeast gene YJL096W
  The level of expressed mRNA in the presence of chemical substance/The level of expressed mRNA in the absence of chemical substance: 1.1
Yeast gene YJL102W
  The level of expressed mRNA in the presence of chemical substance/The level of expressed mRNA in the absence of chemical substance: 1.0
Yeast gene YJL133W
  The level of expressed mRNA in the presence of chemical substance/The level of expressed mRNA in the absence of chemical substance: 0.8
Yeast gene YJL166W
  The level of expressed mRNA in the presence of chemical substance/The level of expressed mRNA in the absence of chemical substance: 1.7
Yeast gene YJL180C
  The level of expressed mRNA in the presence of chemical substance/The level of expressed mRNA in the absence of chemical substance: 0.9
Yeast gene YJR045C
  The level of expressed mRNA in the presence of chemical substance/The level of expressed mRNA in the absence of chemical substance: 0.7
Yeast gene YJR077C
  The level of expressed mRNA in the presence of chemical substance/The level of expressed mRNA in the absence of chemical substance: 1.0
